Test results published in patent US12643867B2, “Compositions and uses thereof” (University of Virginia Patent Foundation, priority 2017, dated 2026).

Experiments:
[1] = biological target: T1, PAN3 (PAB-dependent poly(A)-specific ribonuclease subunit) (Homo sapiens, UniProt Q58A45); experiment: SILAC LC-MS ATP acyl phosphate probe competition, native kinases in HEK293T; assay type: binding; settings: site ATP; ATP 1 mM; Ketanserin, Ritanserin 100 μM; RF001 1 mM
T1 construct: Native kinases; endogenous in cells; host or cells: HEK293T soluble proteome
T1 sequence (Q58A45 1-887): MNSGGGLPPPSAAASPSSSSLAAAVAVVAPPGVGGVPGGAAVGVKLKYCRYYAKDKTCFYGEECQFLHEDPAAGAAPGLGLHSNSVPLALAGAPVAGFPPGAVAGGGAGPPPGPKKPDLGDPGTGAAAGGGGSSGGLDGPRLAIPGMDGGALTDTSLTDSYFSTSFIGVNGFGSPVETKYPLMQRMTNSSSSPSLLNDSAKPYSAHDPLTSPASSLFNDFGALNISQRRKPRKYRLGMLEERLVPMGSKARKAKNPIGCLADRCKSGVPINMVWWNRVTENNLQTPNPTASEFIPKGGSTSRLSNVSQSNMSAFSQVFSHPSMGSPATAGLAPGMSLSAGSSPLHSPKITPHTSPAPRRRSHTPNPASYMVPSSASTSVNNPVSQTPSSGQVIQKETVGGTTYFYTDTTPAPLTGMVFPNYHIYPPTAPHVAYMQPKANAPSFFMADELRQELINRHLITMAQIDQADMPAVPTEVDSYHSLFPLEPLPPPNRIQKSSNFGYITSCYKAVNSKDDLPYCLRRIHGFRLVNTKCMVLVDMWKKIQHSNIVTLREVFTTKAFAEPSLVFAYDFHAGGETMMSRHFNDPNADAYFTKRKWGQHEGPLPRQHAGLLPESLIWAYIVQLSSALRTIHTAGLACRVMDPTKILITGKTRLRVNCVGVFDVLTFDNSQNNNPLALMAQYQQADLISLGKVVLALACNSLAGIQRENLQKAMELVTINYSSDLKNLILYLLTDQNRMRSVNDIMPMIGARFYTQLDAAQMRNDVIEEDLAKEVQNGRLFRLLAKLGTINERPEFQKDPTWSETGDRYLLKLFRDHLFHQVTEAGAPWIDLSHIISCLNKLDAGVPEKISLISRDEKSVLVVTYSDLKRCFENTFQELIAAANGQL
How it was run: (§1)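 First, HEK293T proteomes at 2 mg/ml in kinase buffer were exposed to compound (heavy) or DMSO (light) for 30 min at 25° C. Next, samples were pooled 1:1 and trypsin/Lys-C digested. Finally, desthiobiotin peptides were enriched on avidin and measured by data-dependent LC-MS/MS.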

[2] = biological target: T2, KCC2G (Calcium/calmodulin-dependent protein kinase type II gamma chain) (Homo sapiens, UniProt Q13555); experiment: as above; assay type: binding; settings: site Lys1; ATP 1 mM; Ketanserin, Ritanserin 100 μM; RF001 1 mM
T2 construct: measured against >50 native kinases quantified in HEK293T soluble proteomes; endogenous in cells; host or cells: HEK293T soluble proteome
How it was run: as §1

T2 sequence (Q13555 whole entry): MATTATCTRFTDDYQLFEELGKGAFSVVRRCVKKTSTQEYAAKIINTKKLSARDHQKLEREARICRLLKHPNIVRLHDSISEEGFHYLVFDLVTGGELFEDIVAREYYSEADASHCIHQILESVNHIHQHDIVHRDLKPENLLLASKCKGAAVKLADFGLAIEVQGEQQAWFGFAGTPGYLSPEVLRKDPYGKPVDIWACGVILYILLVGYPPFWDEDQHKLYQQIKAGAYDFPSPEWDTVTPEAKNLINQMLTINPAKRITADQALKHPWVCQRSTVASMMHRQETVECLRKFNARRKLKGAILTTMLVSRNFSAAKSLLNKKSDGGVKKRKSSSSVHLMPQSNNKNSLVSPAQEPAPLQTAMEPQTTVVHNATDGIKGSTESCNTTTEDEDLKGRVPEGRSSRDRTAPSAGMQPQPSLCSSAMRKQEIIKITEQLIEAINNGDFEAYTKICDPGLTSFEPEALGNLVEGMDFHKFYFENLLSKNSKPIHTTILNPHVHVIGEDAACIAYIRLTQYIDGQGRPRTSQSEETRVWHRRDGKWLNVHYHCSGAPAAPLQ

O=C(c1ccc(F)cc1)C1CCN(CCn2c(=O)[nH]c3ccccc3c2=O)CC1 [Ketanserin]
SILAC ratio, PAN3 probe-modified peptide [1]: 1.3
SILAC ratio, KCC2G probe-modified peptide [2]: 1.5

Fc1ccc(C(=C2CCNCC2)c2ccc(F)cc2)cc1 [RF001, 4-(Bis(4-fluorophenyl)methylene) piperidine]
SILAC ratio, PAN3 probe-modified peptide [1]: 1.3
SILAC ratio, KCC2G probe-modified peptide [2]: 1.6

Cc1nc2sccn2c(=O)c1CCN1CCC(=C(c2ccc(F)cc2)c2ccc(F)cc2)CC1 [Ritanserin]
SILAC ratio, PAN3 probe-modified peptide [1]: 1.8
SILAC ratio, KCC2G probe-modified peptide [2]: 2.7
